Tests used:
MCT rats = assay: PH development in MCT rats; type: in vivo
[1] = Residual water content by Karl Fischer titration; type: physicochemical; conditions: Karl Fisher Titration, n = 3, Mean ± SD
From the text: (§1) Using conditions similar to previously reported (Li, X., et al., J Aerosol Med Pulm Drug Deliv, 2014. 27(2): p. 81-93; Li, X., et al., European Journal of Pharmaceutical Sciences, 2014. 52: p. 191-205; Meenach, S. A., et al., AAPS PharmSciTech, 2014. 15(6): p. 1574-87; Li, X., et al., Pharm Sci, 2014. 103(9): p. 2937-49; Meenach, S. A., et al., European Journal of Pharmaceutical Sciences, 2013. 49(4): p. 699-797; Muralidharan, P., et al., The Royal Society of Chemistry(RSC): Molecular Systems Design & Engineering, 2016: p. 1-18), the residual water content of all SD and Co-SD powders were quantified analytically by Karl Fischer titration (KFT) coulometrically using a TitroLine 7500 trace titrator (SI Analytics, Germany).
Approximately 2-10 mg of powder was added to the titration cell containing Hydranal® Coulomat AD reagent. The residual water content was then calculated.

[2] = Particle sizing and size distribution by image analysis of SEM micrographs; type: physicochemical
From the text: as §1, with “visual imaging and analysis” for “the residual water content”, “particle size, morphology,” for “all SD”, “surface morphology” for “Co-SD powders”, “achieved” for “quantified analytically”, “scanning electron microscopy (SEM)” for “Karl Fischer titration (KFT) coulometrically”, “FEI Inspect S microscope (FBI, Brno, Czech republic). […]” for “TitroLine 7500 trace titrator (SI Analytics, Germany).”
The mean size, standard deviation, and size range were determined using SigmaScan™ Pro 5.0.0 (Systat, Inc., San Jose, Calif.) based on their scanning electron micrographs using a similar procedure that we have previously reported (Muralidharan et al., supra; Meenach, S. A., et al., AAPS PharmSciTech, 2014. 15(6): p. 1574-87). Representative micrographs for each particle sample at 3000× magnification was analyzed by measuring the diameter of at least 100 particles per sample.

SMILES | PH development (MCT rats) | Water content [1] | Particle size, Range ([2]; n = 100) | Particle size, Mean ([2]; n = 100, Mean ± SD) [μm]
C[N+](C)(C)C[C@H](O)CC(=O)[O-] [Raw L-Car, L-Carnitine] | attenuates PH development | 2.68 ± 0.8 % (w/w) | 298.38-1810.57 μm | 659.05 ± 235.82
OC[C@@H](O)[C@@H](O)[C@H](O)[C@H](O)CO [Raw Man, D-mannitol] | – | 0.3 ± 0.13 % (w/w) | – | –

From patent publication US11904054B2, “Compositions and methods for delivering pharmaceutical agents” (Arizona Board of Regents on Behalf of the University of …, priority 2018, dated 2024)
